Results on 22 molecules are retold here after patent US20140018347A1, “BENZOXAZEPINES AS INHIBITORS OF mTOR AND METHODS OF THEIR USE AND MANUFACTURE” (Exelixis, Inc., priority 2010, published 2014).

pIC50: −log10 of the molar value.

Experiment [1] addresses PI3Kalpha (Homo sapiens, UniProt P42336). The experiment can be described thus: PI3K Biochemical Assays (PI3K-alpha assay). As to conditions: ATP consumption, luciferase-luciferin; 1 μM ATP, 10 μM PIP2. As to the method: PI3Kn activity was measured as the percent of ATP consumed following the kinase reaction using luciferase-luciferin-coupled chemiluminescence. Reactions were conducted in 384-well white, medium binding microtiter plates (Greiner). Kinase reactions were initiated by combining test compounds, ATP, substrate (PIP2), and kinase in a 20 μL volume in a buffer solution. The standard PI3Kalpha assay buffer was composed 50 mM Tris, pH 7.5, 1 mM EGTA, 10 mM MgCl2, 1 mM DTT and 0.03% CHAPS. The standard assay concentrations for enzyme, ATP, and substrate were 3 nM, 1 μM, and 10 μM, respectively. The reaction mixture was incubated at ambient temperature for approximately 2 h. Following the kinase reaction, a 10 μL aliquot of luciferase-luciferin mix (Promega Kinase-Glo) was added and the chemiluminescence signal measured using a Victor2 or EnVision (Perkin Elmer). Total ATP consumption was limited to 40-60% and IC50 values of control compounds correlate well with literature references. Substituting PI3Kα with PI3Krβ, PI3Kγ, or PI3Kδ, the inhibitory activity of the compounds for the other isoforms of PI3K were measured. For the PI3Kβ and PI3Kδ assays, enzyme concentrations were 10 nM and 4 nM, respectively. For the PI3Kγ assay, enzyme concentration was 40 nM, the incubation time was 1 h, and the concentration of MgCl2 in the assay buffer was 5 mM.

Experiment [2] concerns the target mTORC1 (Homo sapiens, UniProt P42345). The experiment in a line: mTOR/GbL/Raptor (mTORC1) ELISA Assay. Conditions: phosphorylation of 4E-BP1; 0.2 nM mTORC1, 10 μM ATP. It is filed as biochemical. As to the method:
The measurement of mTORC1 enzyme activity was performed in an ELISA assay format following the phosphorylation of 4E-BP1 protein. All experiments were performed in the 384-well format. Generally, 0.5 μL DMSO containing varying concentrations of the test compound was mixed with 15 μL enzyme solution. Kinase reactions were initiated with the addition of 15 μL of substrates-containing solution. The assay conditions were as follows; 0.2 nM mTORC1, 10 μM ATP and 50 nM NHis-tagged 4E-BP1 in 20 mM Hepes, pH 7.2, 1 mM DTT, 50 mM NaCl, 10 mM MnCl2, 0.02 mg/mL BSA, 0.01% CHAPS, 50 mM β-glycerophosphate. Following an incubation of 120 minutes at ambient temperature, 20 μL of the reaction volume was transferred to a Ni-Chelate-coated 384-well plate. The binding step of the 4E-BP1 protein proceeded for 60 minutes, followed by washing 4 times each with 50 μL of Tris-buffered saline solution (TBS). Anti-phospho-4E-BP1 rabbit-IgG (20 μL, 1:5000) in 5% BSA-TBST (0.2% Tween-20 in TBS) was added and further incubated for 60 minutes. Incubation with a secondary HRP-tagged anti-IgG was similarly performed after washing off the primary antibody (4 washes of 50 μL). Following the final wash step with TBST, 20 μL of SuperSignal ELISA Femto (Pierce Biotechnology) was added and the luminescence measured using an EnVision plate reader.
For orientation: In an ELISA, binding on a coated surface is turned into a signal by an enzyme label.

Chain of PI3Kalpha (P42336 whole entry): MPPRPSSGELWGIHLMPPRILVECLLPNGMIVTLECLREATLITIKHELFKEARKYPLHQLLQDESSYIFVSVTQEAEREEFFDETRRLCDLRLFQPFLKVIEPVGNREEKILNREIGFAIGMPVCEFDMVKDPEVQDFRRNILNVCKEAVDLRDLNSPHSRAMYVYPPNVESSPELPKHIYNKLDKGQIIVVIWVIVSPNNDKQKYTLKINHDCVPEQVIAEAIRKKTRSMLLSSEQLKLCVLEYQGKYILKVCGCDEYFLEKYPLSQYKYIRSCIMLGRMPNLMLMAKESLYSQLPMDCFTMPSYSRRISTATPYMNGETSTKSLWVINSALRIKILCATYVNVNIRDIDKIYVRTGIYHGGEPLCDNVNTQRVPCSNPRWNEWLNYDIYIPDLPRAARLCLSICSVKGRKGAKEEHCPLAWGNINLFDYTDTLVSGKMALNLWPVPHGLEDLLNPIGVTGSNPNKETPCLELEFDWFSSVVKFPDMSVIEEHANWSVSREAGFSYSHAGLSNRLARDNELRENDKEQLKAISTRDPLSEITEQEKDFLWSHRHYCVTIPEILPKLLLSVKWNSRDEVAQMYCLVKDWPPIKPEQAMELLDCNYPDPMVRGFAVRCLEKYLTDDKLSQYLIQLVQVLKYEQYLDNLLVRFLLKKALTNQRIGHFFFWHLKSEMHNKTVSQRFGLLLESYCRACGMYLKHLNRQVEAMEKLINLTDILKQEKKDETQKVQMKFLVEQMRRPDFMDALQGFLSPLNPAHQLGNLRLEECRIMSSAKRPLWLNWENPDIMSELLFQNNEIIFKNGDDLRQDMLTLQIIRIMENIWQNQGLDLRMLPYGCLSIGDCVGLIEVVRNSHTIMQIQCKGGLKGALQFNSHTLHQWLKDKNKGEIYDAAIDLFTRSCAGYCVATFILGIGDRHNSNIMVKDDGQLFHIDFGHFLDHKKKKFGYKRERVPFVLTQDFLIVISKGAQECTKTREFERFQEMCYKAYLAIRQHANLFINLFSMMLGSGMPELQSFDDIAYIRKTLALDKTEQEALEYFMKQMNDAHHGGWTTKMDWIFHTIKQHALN
Chain of PI3Kalpha (P27986 whole entry partner): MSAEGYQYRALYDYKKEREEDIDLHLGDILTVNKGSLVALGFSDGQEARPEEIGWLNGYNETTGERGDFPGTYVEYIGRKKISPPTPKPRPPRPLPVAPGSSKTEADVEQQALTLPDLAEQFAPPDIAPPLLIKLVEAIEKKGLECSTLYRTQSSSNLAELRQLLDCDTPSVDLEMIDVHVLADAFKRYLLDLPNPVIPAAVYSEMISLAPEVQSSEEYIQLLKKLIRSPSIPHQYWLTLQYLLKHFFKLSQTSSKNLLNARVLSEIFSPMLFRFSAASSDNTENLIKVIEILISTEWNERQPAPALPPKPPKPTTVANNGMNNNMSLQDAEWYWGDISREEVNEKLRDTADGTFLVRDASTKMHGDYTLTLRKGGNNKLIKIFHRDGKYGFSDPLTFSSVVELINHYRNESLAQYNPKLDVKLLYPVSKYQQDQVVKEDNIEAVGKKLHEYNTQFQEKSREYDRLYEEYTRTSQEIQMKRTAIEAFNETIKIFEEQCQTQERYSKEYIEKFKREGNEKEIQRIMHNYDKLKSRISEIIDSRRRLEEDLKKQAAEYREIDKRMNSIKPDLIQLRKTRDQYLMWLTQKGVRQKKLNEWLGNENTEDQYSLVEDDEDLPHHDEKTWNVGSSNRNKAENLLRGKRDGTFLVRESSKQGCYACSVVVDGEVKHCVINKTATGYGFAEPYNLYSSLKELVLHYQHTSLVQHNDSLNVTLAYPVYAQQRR

In the case of `Nc1nc(Cl)cc(N2CCOc3ccc(-c4cnc5sc(N)nc5c4)cc3C2)n1` [Compound 16, 6-[4-(2-amino-6-chloropyrimidin-4-yl)-2,3,4,5-tetrahydro-1,4-benzoxazepin-7-yl][1,3]thiazolo[5,4-b]pyridin-2-amine], the pIC50 in experiment [1] and in experiment [2] was 6.30 to 7.00 each time.

Consider `CC(C)c1cnc(N)nc1N1CCOc2ccc(-c3cnc4sc(N)nc4c3)cc2C1` [Compound 95, 6-{4-[2-amino-5-(1-methylethyl)pyrimidin-4-yl]-2,3,4,5-tetrahydro-1,4-benzoxazepin-7-yl}[1,3]thiazolo[5,4-b]pyridin-2-amine], for which the pIC50 in experiment [1] and in experiment [2] was ≥ 7.00 each time.

Take `C=Cc1c(Cl)nc(N)nc1N1CCOc2ccc(-c3cnc4sc(N)nc4c3)cc2C1` [Compound 11, 6-[4-(2-amino-6-chloro-5-ethenylpyrimidin-4-yl)-2,3,4,5-tetrahydro-1,4-benzoxazepin-7-yl][1,3]thiazolo[5,4-b]pyridin-2-amine]: the pIC50 in experiment [1] and in experiment [2] was ≥ 7.00 each time.

For `CCCc1cnc(N)nc1N1CCOc2ccc(-c3cnc4sc(N)nc4c3)cc2C1` [Compound 33, 6-[4-(2-amino-5-propylpyrimidin-4-yl)-2,3,4,5-tetrahydro-1,4-benzoxazepin-7-yl][1,3]thiazolo[5,4-b]pyridin-2-amine], the pIC50 in experiment [1] and in experiment [2] was ≥ 7.00 throughout.

`Cc1nc(N)nc(N2CCOc3ccc(-c4cnc5sc(N)nc5c4)cc3C2)c1C(C)C` [Compound 100]: the pIC50 in experiment [1] and in experiment [2] was ≥ 7.00 in each case.

In the case of `Nc1nc2cc(-c3ccc4c(c3)CN(c3ncc(C(F)(F)F)c(N)n3)CCO4)cnc2s1` [Compound 81, 6-{4-[4-amino-5-(trifluoromethyl)pyrimidin-2-yl]-2,3,4,5-tetrahydro-1,4-benzoxazepin-7-yl}[1,3]thiazolo[5,4-b]pyridin-2-amine], the pIC50 in experiment [1] and in experiment [2] was 6.30 to 7.00 in each case.

In the case of `Cc1nc(N)nc(N2CCOc3ccc(-c4cnc5sc(N)nc5c4)cc3C2)c1C1CC1` [Compound 41, 6-[4-(2-amino-5-cyclopropyl-6-methylpyrimidin-4-yl)-2,3,4,5-tetrahydro-1,4-benzoxazepin-7-yl][1,3]thiazolo[5,4-b]pyridin-2-amine], the pIC50 in experiment [1] is 6.30 to 7.00; in experiment [2], 5.60 to 6.30.

As for `Cc1nc(N)nc(N2CCOc3ccc(-c4cnc5sc(N)nc5c4)cc3C2)c1C=O` [Compound 42, 2-amino-4-[7-(2-amino[1,3]thiazolo[5,4-b]pyridin-6-yl)-2,3-dihydro-1,4-bcnzoxazepin-4(5H)-yl]-6-methylpyrimidine-5-carbaldehyde], the pIC50 in experiment [1] was ≥ 7.00; in experiment [2] it was 6.30 to 7.00.

`CC1(C)CCc2nc(N)nc(N3CCOc4ccc(-c5cnc6sc(N)nc6c5)cc4C3)c2C1` [Compound 61, 4-[7-(2-amino[1,3]thiazolo[5,4-b]pyridin-6-yl)-2,3-dihydro-1,4-benzoxazepin-4(5H)-yl]-6,6-dimethyl-5,6,7,8-tetrahydroquinazolin-2-amine]: the pIC50 in experiment [1] and in experiment [2] was ≥ 7.00 each time.

Take `Cc1nc(N)nc(N2CCOc3ccc(-c4cnc5sc(N)nc5c4)cc3C2)c1C#N` [Compound 72, 2-amino-4-[7-(2-amino[1,3]thiazolo[5,4-b]pyridin-6-yl)-2,3-dihydro-1,4-benzoxazepin-4(5H)-yl]-6-methylpyrimidine-5-carbonitrile]: the negative logarithm of the IC50 (pIC50) in experiment [1] and in experiment [2] was ≥ 7.00 in each case.

For the molecule `C=Cc1c(N2CCOc3ccc(-c4cnc5sc(N)nc5c4)cc3C2)nc(N)nc1C(F)(F)F` [Compound 17, 6-{4-[2-amino-5-ethenyl-6-(trifluoromethyl)pyrimidin-4-yl]-2,3,4,5-tetrahydro-1,4-benzoxazepin-7-yl}[1,3]thiazolo[5,4-b]pyridin-2-amine], the pIC50 in experiment [1] and in experiment [2] was ≥ 7.00 throughout.

Consider `CC(C)(C)c1cnc(N)nc1N1CCOc2ccc(-c3cnc4sc(N)nc4c3)cc2C1` [Compound 47, 6-{4-[2-amino-5-(1,1-dimethylethyl)pyrimidin-4-yl]-2,3,4,5-tetrahydro-1,4-benzoxazepin-7-yl}[1,3]thiazolo[5,4-b]pyridin-2-amine], for which the pIC50 in experiment [1] and in experiment [2] was 5.60 to 6.30 throughout.

In the case of `C/C=C/c1c(Cl)nc(N)nc1N1CCOc2ccc(-c3cnc4sc(N)nc4c3)cc2C1` [Compound 75, 6-(4-{2-amino-6-chloro-5-[(1E)-prop-1-en-1-yl]pyrimidin-4-yl}-2,3,4,5-tetrahydro-1,4-benzoxazepin-7-yl)[1,3]thiazolo[5,4-b]pyridin-2-amine], the pIC50 in experiment [1] and in experiment [2] was ≥ 7.00 each time.

`Cc1c(N)nc(N)nc1N1CCOc2ccc(-c3cnc4sc(N)nc4c3)cc2C1` [Compound 73, 6-[7-(2-amino[1,3]thiazolo[5,4-b]pyridin-6-yl)-2,3-dihydro-1,4-benzoxazepin-4(5H)-yl]-5-methylpyrimidine-2,4-diamine]: the pIC50 in experiment [1] was ≥ 7.00; in experiment [2], 6.30 to 7.00.

For the molecule `Nc1nc2c(c(N3CCOc4ccc(-c5cnc6sc(N)nc6c5)cc4C3)n1)CCC2` [Compound 15, 6-[4-(2-amino-6,7-dihydro-5H-cyclopenta[d]pyrimidin-4-yl)-2,3,4,5-tetrahydro-1,4-benzoxazepin-7-yl][1,3]thiazolo[5,4-b]pyridin-2-amine], the negative logarithm of the IC50 (pIC50) in experiment [1] and in experiment [2] was ≥ 7.00 throughout.

Consider `Cc1nc(CN(C)C)nc(N2CCOc3ccc(-c4cnc5sc(N)nc5c4)cc3C2)c1CCCF` [Compound 38, 6-(4-{2-[(dimethylamino)methyl]-5-(3-fluoropropyl)-6-methylpyrimidin-4-yl}-2,3,4,5-telrahydro-1,4-benzoxazepin-7-yl)[1,3]thiazolo[5,4-b]pyridin-2-amine], for which the negative-log IC50 (pIC50) in experiment [1] and in experiment [2] was ≥ 7.00 in each case.

Turning to `Nc1cc(N2CCOc3ccc(-c4cnc5sc(N)nc5c4)cc3C2)ccn1` [Compound 94, 6-[4-(2-aminopyridin-4-yl)-2,3,4,5-tetrahydro-1,4-benzoxazepin-7-yl][1,3]thiazolo[5,4-b]pyridin-2-amine], the negative-log IC50 (pIC50) in experiment [1] and in experiment [2] was 5.60 to 6.30 throughout.

Take `CCN(CC)Cc1nc(C)c(C(C)C)c(N2CCOc3ccc(-c4cnc5sc(N)nc5c4)cc3C2)n1` [Compound 4, 6-(4-{2-[(diethylamino)methyl]-6-methyl-5-(1-methylethyl)pyrimidin-4-yl}-2,3,4,5-tetrahydro-1,4-benzoxazepin-7-yl)[1,3]thiazolo[5,4-b]pyridin-2-amine]: the pIC50 in experiment [1] and in experiment [2] was ≥ 7.00 each time.

Take `Nc1cc(N2CCOc3ccc(-c4cnc5sc(N)nc5c4)cc3C2)nc(Cl)n1` [Compound 51, 6-[4-(6-amino-2-chloropyrimidin-4-yl)-2,3,4,5-tetrahydro-1,4-benzoxazepin-7-yl][1,3]thiazolo[5,4-b]pyridin-2-amine]: the pIC50 was 5.60 to 6.30 in experiment [1] and 6.30 to 7.00 in experiment [2].

For `COCCc1c(C)nc(CN(C)C)nc1N1CCOc2ccc(-c3cnc4sc(N)nc4c3)cc2C1` [Compound 13, 6-(4-{2-[(dimethylamino)methyl]-6-methyl-5-[2-(methyloxy)ethyl]pyrimidin-4-yl}-2,3,4,5-tetrahydro-1,4-benzoxazepin-7-yl)[1,3]thiazolo[5,4-b]pyridin-2-amine], the negative logarithm of the IC50 (pIC50) is ≥ 7.00 in experiment [1] and 6.30 to 7.00 in experiment [2].

Turning to `C=Cc1c(C)nc(N)nc1N1CCOc2ccc(-c3cnc4sc(N)nc4c3)cc2C1` [Compound 52, 6-[4-(2-amino-5-ethenyl-6-methylpyrimidin-4-yl)-2,3,4,5-tetrahydro-1,4-bcnzoxazepin-7-yl][1,3]thiazolo[5,4-b]pyridin-2-amine], the pIC50 in experiment [1] and in experiment [2] was ≥ 7.00 in each case.

`CCCc1c(Cl)nc(N)nc1N1CCOc2ccc(-c3cnc4sc(N)nc4c3)cc2C1` [Compound 9, 6-[4-(2-amino-6-chloro-5-propylpyrimidin-4-yl)-2,3,4,5-tetrahydro-1,4-benzoxazepin-7-yl][1,3]thiazolo[5,4-b]pyridin-2-amine]: the pIC50 in experiment [1] and in experiment [2] was ≥ 7.00 each time.

For orientation: pIC50 means −log10 of the IC50, conventionally taken in molar units.
